According to US10426762B2, “Inhibitors of hepatitis C virus polymerase” (COCRYSTAL DISCOVERY, INC., priority 2012, dated 2019):

Key:
[1] = target: T1, HCV1b NS5B polymerase delta 21 (Hepatitis C virus genotype 1b, UniProt P26663); experiment: RNA-dependent RNA HCV NS5B (polymerase) assay and IC50 determination; assay type: biochemical
T1 construct: purified HCV1b NS5B polymerase delta 21
Description: Example 212—RNA-Dependent RNA HCV NS5B (Polymerase) Assay and IC50 Determination
In vitro RNA-dependent RNA polymerase activity was determined in a reaction mixture (50 μL) containing 50 mM Tris-HCl, pH 7.5, 5 mM MgCl2, 1 mM dithiothreitol, 0.5% Triton® X-100, 10 μM of UTP, 0.1-0.5 μCi of α-^32P UTP (Perkin Elmer Life Sciences), 1 μg of polyA:U16 (Midland Oligo), and 0.6 μg of purified HCV1b NS5B polymerase delta 21. Different concentrations of compounds were added to the reaction mixtures. The reaction was carried out at RT (23° C.) for 60 min and then stopped by the addition of 100 μL of 50 mM EDTA. The reaction mixtures were filtered through either a DE81 membrane or a positively charged nylon membrane, and the membranes were then extensively washed with 30 mM sodium citrate, pH 7.0 and 300 mM NaCl. The radiolabeled RNA products were quantitated using a Storm™ PhosphorImager™ (GE life Sciences). IC50 values were calculated using GraFit 6 and GraphPad Prism 5 from triplicate assays.

[2] = test system: HCV1b replicon; experiment: HCV replicon assay (Huh-7 cell line with HCV1b replicon containing luciferase reporter) and EC50 determination; assay type: cell-based; details: Hepatitis C virus, Huh-7 HCV1b replicon luciferase reporter, 72 hr, triplicate
Description: Example 213—HCV Replicon Assay and EC50 Determination
The antiviral activity of compounds against hepatitis C virus was determined by a hepatitis C virus replicon reporter cell line developed by Bartenschlager (Lohmann et al., Science 1999, 285:110-113; Bartenschlager et al., Antiviral Res 2003, 60:91-102). This cell-based assay utilized a liver cell carcinoma (Huh-7) cell line stably transformed with an HCV1b replicon containing a luciferase reporter gene. Varied concentrations of compounds were added to the reporter cell line, and further incubated at 37° C. for 72 hr in DMEM supplemented with 10% FCS. The inhibitory effects of experimental compounds or the reference compound, interferon alpha (INFα), on HCV replication were measured by luciferase activity using the Britelite™ plus luminescence reporter gene kit (Perkin Elmer, Shelton, Conn.). The Britelite plus reagent was added to the 96-well plates containing the HCV reporter cells, and luminescence was measured within 15 min using a Wallac 1450 Microbeta® Trilux liquid scintillation counter. EC50 values were calculated using GraFit 6 and GraphPad Prism 5 from triplicate HCV replicon assays.

T1 sequence (P26663 2420-2989): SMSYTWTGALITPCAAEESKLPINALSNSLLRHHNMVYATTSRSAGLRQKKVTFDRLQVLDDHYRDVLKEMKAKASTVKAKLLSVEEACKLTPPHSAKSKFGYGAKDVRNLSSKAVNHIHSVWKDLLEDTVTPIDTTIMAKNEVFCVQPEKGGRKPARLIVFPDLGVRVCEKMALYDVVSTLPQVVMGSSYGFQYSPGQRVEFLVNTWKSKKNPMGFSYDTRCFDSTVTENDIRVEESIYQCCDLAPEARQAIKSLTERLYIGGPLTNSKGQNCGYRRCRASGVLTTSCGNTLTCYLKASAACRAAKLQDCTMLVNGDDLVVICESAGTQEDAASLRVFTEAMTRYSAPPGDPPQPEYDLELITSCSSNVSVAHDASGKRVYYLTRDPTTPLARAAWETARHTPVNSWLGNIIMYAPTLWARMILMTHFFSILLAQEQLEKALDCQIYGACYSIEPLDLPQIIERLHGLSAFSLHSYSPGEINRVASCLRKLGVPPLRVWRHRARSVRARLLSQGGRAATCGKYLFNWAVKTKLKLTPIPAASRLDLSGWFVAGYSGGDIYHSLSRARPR

Structure (SMILES): CN1CCC(C2CCC(F)(F)CC2)=C(c2cc(-c3ccc(NC(=O)c4cscn4)cc3)sc2C(=O)O)C1 [Example 200, 3-(4-(4,4-difluorocyclohexyl)-1-methyl-1,2,5,6-tetrahydropyridin-3-yl)-5-(4-(thiazole-4-carboxamido)phenyl)thiophene-2-carboxylic acid]
- IC50 [1]: < 3 µM
- EC50 ([2]; Table 1): 3 to 10 µM

Structure (SMILES): CN1CCC(C2CCCCC2)=C(c2cc(-c3ccc(NC(=O)c4cscn4)cc3)sc2C(=O)O)C1 [Example 210, 3-(4-Cyclohexyl-1-methyl-1,2,5,6-tetrahydro-pyridin-3-yl)-5-{4-[(thiazole-4-carbonyl)-amino]-phenyl}-thiophene-2-carboxylic acid]
- IC50 [1]: < 3 µM

Structure (SMILES): CC1CCC(C2=C(c3cc(-c4ccc(NC(=O)c5cscn5)cc4)sc3C(=O)O)CN(CC3COC(C)(C)O3)CC2)CC1 (centres unmarked) [Example 189, 3-(1-((2,2-dimethyl-1,3-dioxolan-4-yl)methyl)-4-(4-methylcyclohexyl)-1,2,5,6-tetrahydropyridin-3-yl)-5-(4-(thiazole-4-carboxamido)phenyl)thiophene-2-carboxylic acid]
- IC50 [1]: < 3 µM

Structure (SMILES): CC1CCC(C2=C(c3cc(-c4ccc(NC(=O)c5cscn5)c(F)c4)sc3C(=O)O)CN(C)CC2)CC1 (centres unmarked) [Example 198]
- IC50 [1]: < 3 µM

Structure (SMILES): CN1CCC(c2cc(C#CC(C)(C)C)sc2C(=O)O)=C(C2CCCCC2)C1 [Example 211, 3-(5-Cyclohexyl-1-methyl-1,2,3,6-tetrahydro-pyridin-4-yl)-5-(3,3-dimethyl-but-1-ynyl)-thiophene-2-carboxylic acid]
- IC50 [1]: < 3 µM

Structure (SMILES): CC1CCC(C2=C(c3cc(-c4ccc(NC(=O)c5cscn5)cc4)sc3C(=O)O)CN(CC(O)CO)CC2)CC1 (centres unmarked) [Example 190, 3-(1-(2,3-dihydroxypropyl)-4-(4-methylcyclohexyl)-1,2,5,6-tetrahydropyridin-3-yl)-5-(4-(thiazole-4-carboxamido)phenyl)thiophene-2-carboxylic acid]
- IC50 [1]: < 3 µM
- EC50 ([2]; Table 2): < 3 µM

Structure (SMILES): CCc1cc(-c2cc(C3=C(C4CCC(C)CC4)CN(C)CC3)c(C(=O)O)s2)ccc1NC(=O)c1cscn1 (centres unmarked) [Example 181, 5-(3-ethyl-4-(thiazole-4-carboxamido)phenyl)-3-(1-methyl-5-(4-methylcyclohexyl)-1,2,3,6-tetrahydropyridin-4-yl)thiophene-2-carboxylic acid]
- IC50 [1]: < 3 µM

Structure (SMILES): CN1CCC(c2cc(-c3ccccc3)sc2C(=O)O)=C(c2ccc(Cl)cc2)C1 [Example 208, 3-[5-(4-Chloro-phenyl)-1-methyl-1,2,3,6-tetrahydro-pyridin-4-yl]-5-phenyl-thiophene-2-carboxylic acid]
- IC50 [1]: > 10 µM

Structure (SMILES): CC1CCC(C2=C(c3cc(-c4ccc(NC(=O)c5cscn5)cc4)sc3C(=O)O)CCN(Cc3cnn(C)c3)C2)CC1 (centres unmarked) [Example 186, 3-(1-((1-methyl-1H-pyrazol-4-yl)methyl)-5-(4-methylcyclohexyl)-1,2,3,6-tetrahydropyridin-4-yl)-5-(4-(thiazole-4-carboxamido)phenyl)thiophene-2-carboxylic acid]
- IC50 [1]: < 3 µM

Structure (SMILES): CN1CCC(c2cc(-c3ccccc3)sc2C(=O)O)=C(C2CCCC2)C1 [Example 207, 3-(5-Cyclopentyl-1-methyl-1,2,3,6-tetrahydro-pyridin-4-yl)-5-phenyl-thiophene-2-carboxylic acid]
- IC50 [1]: 3 to 10 µM

Structure (SMILES): CN1CCC(c2cc(-c3ccccc3)sc2C(=O)O)=C(C2CCCCCC2)C1 [Example 206, 3-(5-Cycloheptyl-1-methyl-1,2,3,6-tetrahydro-pyridin-4-yl)-5-phenyl-thiophene-2-carboxylic acid]
- IC50 [1]: < 3 µM

Structure (SMILES): Cc1cc(-c2cc(C3=C(C4CCC(C)CC4)CCN(Cc4cnn(C)c4)C3)c(C(=O)O)s2)ccc1NC(=O)c1cscn1 (centres unmarked) [Example 199, 3-(1-((1-methyl-1H-pyrazol-4-yl)methyl)-4-(4-methylcyclohexyl)-1,2,5,6-tetrahydropyridin-3-yl)-5-(3-methyl-4-(thiazole-4-carboxamido)phenyl)thiophene-2-carboxylic acid]
- IC50 [1]: < 3 µM
